“And” between values parts separate entries of the source, which are not always exact repeats. Equal values may be shown once.
Test system: ANGIOTENSIN II (AII) VASOPRESSOR RESPONSE
Assay: AII Challenge: angiotensin II vasopressor response in conscious spontaneously hypertensive rats
Type: in vivo, Conscious Male Okamoto-Aoki SHR (rat)
Conditions: 10 mg/kg i.v.; for % Inhibition / Average Change: SHR n=2; for Response After AII / Response Change / Control Before AII: individual rat, SHR
From the text: By administering a compound of this invention to a rat, and then challenging with angiotensin II, a blockage of the vasopressor response is realized.
Conscious Male Okamoto-Aoki SHR, 16-20 weeks old, weighing approximately 330 g are purchased from Charles River Labs (Wilmington, Mass.). Conscious rats are restrained in a supine position with elastic tape. The area at the base of the tail is locally anesthetized by subcutaneous infiltration with 2% procaine. The ventral caudal artery and vein are isolated, and a cannula made of polyethylene (PE) 10-20 tubing (fused together by heat) is passed into the lower abdominal aorta and vena cava, respectively. The cannula is secured, heparinized (1,000 I.U./ml), sealed and the wound is closed. The animals are placed in plastic restraining cages in an upright position. The cannula is attached to a Statham P23Db pressure transducer, and pulsatile blood pressure is recorded to 10-15 minutes with a Gould Brush recorder. (Chan et al., (Drug Development Res., 18:75-94, 1989).
Angiotensin II (human sequence, Sigma Chem. Co., St. Louis, Mo.) of 0.05 and 0.1 ug/kg i.v. is injected into all rats (predosing response). Then a test compound, vehicle or a known angiotensin II antagonist is administered i.v., i.p. or orally to each set of rats. The two doses of angiotensin II are given to each rat again at 30, 60, 90, 120, 180, 240 and 300 minutes post dosing the compound or vehicle. The vasopressor response of angiotensin II is measured for the increase in systolic blood pressure in mmHg. The percentage of antagonism or blockade of the vasopressor response of angiotensin II by a compound is calculated using the vasopressor response (increase in systolic blood pressure) of angiotensin II of each rat predosing the compound as 100%. A compound is considered active if at 30 mg/kg i.v. it antagonized at least 50% of the response.

[1] = AII 0.05 mcg/kg IV, 30 min post dose
[2] = AII 0.05 mcg/kg IV, 60 min post dose
[3] = AII 0.05 mcg/kg IV, 90 min post dose
[4] = AII 0.05 mcg/kg IV, 120 min post dose
[5] = AII 0.05 mcg/kg IV, 180 min post dose
[6] = AII 0.05 mcg/kg IV, 240 min post dose
[7] = AII 0.05 mcg/kg IV, 300 min post dose
[8] = AII 0.1 mcg/kg IV, 30 min post dose
[9] = AII 0.1 mcg/kg IV, 60 min post dose
[10] = AII 0.1 mcg/kg IV, 90 min post dose
[11] = AII 0.1 mcg/kg IV, 120 min post dose
[12] = AII 0.1 mcg/kg IV, 180 min post dose
[13] = AII 0.1 mcg/kg IV, 240 min post dose
[14] = AII 0.1 mcg/kg IV, 300 min post dose
[15] = AII 0.05 mcg/kg IV, 30 min post dose, 10 mg/kg
[16] = AII 0.05 mcg/kg IV, 60 min post dose, 10 mg/kg
[17] = AII 0.05 mcg/kg IV, 90 min post dose, 10 mg/kg
[18] = AII 0.05 mcg/kg IV, 180 min post dose, 10 mg/kg
[19] = AII 0.05 mcg/kg IV, 240 min post dose, 10 mg/kg
[20] = AII 0.05 mcg/kg IV, 300 min post dose, 10 mg/kg
[21] = AII 0.1 mcg/kg IV, 30 min post dose, 10 mg/kg
[22] = AII 0.1 mcg/kg IV, 60 min post dose, 10 mg/kg
[23] = AII 0.1 mcg/kg IV, 90 min post dose, 10 mg/kg
[24] = AII 0.1 mcg/kg IV, 120 min post dose, 10 mg/kg
[25] = AII 0.1 mcg/kg IV, 180 min post dose, 10 mg/kg
[26] = AII 0.1 mcg/kg IV, 240 min post dose, 10 mg/kg
[27] = AII 0.1 mcg/kg IV, 300 min post dose, 10 mg/kg

With `CCCCc1nc2ccc([C@H]3C[C@H](CO)ON3C)cc2c(=O)n1Cc1ccc(-c2ccccc2-c2nnn[nH]2)cc1` (relative stereo) [Example 16, TRANS-2-butyl-6-[5-(hydroxymethyl)-2-methyl-3-isoxazolidinyl]-3-[[2'-(1H-tetrazol-5-yl)[1,1'-biphenyl]-4-yl]methyl]-4(3H)-quinazolinone] the “% Inhibition” value [1] was 85%, the “Average Change” value [1] was 8 mmHg and the “% Inhibition” value [2] was 76%. The “Average Change” value [2] was 12.5 mmHg, the “% Inhibition” value [3] was 62% and the “Average Change” value [3] was 20 mmHg. The “% Inhibition” value [4] was 67%, the “Average Change” value [4] was 17.5 mmHg and the “% Inhibition” value [5] was 50%. For the same compound, the “Average Change” value [5] was 26.5 mmHg, the “% Inhibition” value [6] was 50% and the “Average Change” value [6] was 26.5 mmHg. The “% Inhibition” value [7] was 19%, the “Average Change” value [7] was 42.5 mmHg and the “% Inhibition” value [8] was 81%. For the same compound, the “Average Change” value [8] was 10 mmHg, the “% Inhibition” value [9] was 79% and the “Average Change” value [9] was 11.5 mmHg. The “% Inhibition” value [10] was 77%, the “Average Change” value [10] was 12.5 mmHg and the “% Inhibition” value [11] was 68%. The “Average Change” value [11] was 17.5 mmHg, the “% Inhibition” value [12] was 54% and the “Average Change” value [12] was 25 mmHg. For the same compound, the “% Inhibition” value [13] was 54%, the “Average Change” value [13] was 25 mmHg and the “% Inhibition” value [14] was 26%. The “Average Change” value [14] was 40 mmHg, the “Response After AII” value [15] was 198 mmHg and 190 mmHg and the “Response Change” value [15] was 3 mmHg and 13 mmHg. For the same compound, the “Response After AII” value [16] was 200 mmHg and 180 mmHg, the “Response Change” value [16] was 5 mmHg and 20 mmHg and the “Response After AII” value [3] was 190 mmHg. For the same compound, the “Response After AII” value [17] was 215 mmHg, the “Response Change” value [17] was 10 mmHg and 30 mmHg and the “Response After AII” value [4] was 210 mmHg. The “Response Change” value (AII 0.05 mcg/kg IV, 120 min post dose, 10 mg/kg) was 15 mmHg and 20 mmHg, the “Response After AII” value [5] was 218 mmHg and the “Response After AII” value [18] was 195 mmHg. For the same compound, the “Response Change” value [18] was 23 mmHg and 30 mmHg, the “Response After AII” value [6] was 218 mmHg and the “Response After AII” value [19] was 195 mmHg. For the same compound, the “Response Change” value [19] was 23 mmHg and 30 mmHg, the “Response After AII” value [7] was 230 mmHg and the “Response After AII” value [20] was 225 mmHg. The “Response Change” value [20] was 35 mmHg and 50 mmHg, the “Response After AII” value [21] was 205 mmHg and 175 mmHg and the “Response Change” value [21] was 15 mmHg and 5 mmHg. The “Response After AII” value [22] was 210 mmHg and 173 mmHg, the “Response Change” value [22] was 15 mmHg and 8 mmHg and the “Response After AII” value [10] was 210 mmHg. The “Response After AII” value [23] was 185 mmHg, the “Response Change” value [23] was 10 mmHg and 15 mmHg and the “Response After AII” value [24] was 220 mmHg and 200 mmHg. The “Response Change” value [24] was 20 mmHg and 15 mmHg, the “Response After AII” value [25] was 215 mmHg and 205 mmHg and the “Response Change” value [25] was 15 mmHg and 35 mmHg. For the same compound, the “Response After AII” value [26] was 215 mmHg and 205 mmHg, the “Response Change” value [26] was 15 mmHg and 35 mmHg and the “Response After AII” value [27] was 250 mmHg and 230 mmHg. The “Response Change” value [27] was 30 mmHg and 50 mmHg, the “Control Before AII” value (before AII 0.05 mcg/kg IV, 30 min post dose, 10 mg/kg) was 195 mmHg and 177 mmHg and the “Control Before AII” value (before AII 0.05 mcg/kg IV, 60 min post dose, 10 mg/kg) was 195 mmHg and 160 mmHg. The “Control Before AII” value (before AII 0.05 mcg/kg IV, 90 min post dose, 10 mg/kg) was 205 mmHg and 160 mmHg, the “Control Before AII” value (before AII 0.05 mcg/kg IV, 120 min post dose, 10 mg/kg) was 195 mmHg and 190 mmHg and the “Control Before AII” value (before AII 0.05 mcg/kg IV, 180 min post dose, 10 mg/kg) was 195 mmHg and 165 mmHg. The “Control Before AII” value (before AII 0.05 mcg/kg IV, 240 min post dose, 10 mg/kg) was 195 mmHg and 165 mmHg, the “Control Before AII” value (before AII 0.05 mcg/kg IV, 300 min post dose, 10 mg/kg) was 195 mmHg and 175 mmHg and the “Control Before AII” value (before AII 0.1 mcg/kg IV, 30 min post dose, 10 mg/kg) was 190 mmHg and 170 mmHg. For the same compound, the “Control Before AII” value (before AII 0.1 mcg/kg IV, 60 min post dose, 10 mg/kg) was 195 mmHg and 165 mmHg, the “Control Before AII” value (before AII 0.1 mcg/kg IV, 90 min post dose, 10 mg/kg) was 200 mmHg and 170 mmHg and the “Control Before AII” value (before AII 0.1 mcg/kg IV, 120 min post dose, 10 mg/kg) was 200 mmHg and 185 mmHg. For the same compound, the “Control Before AII” value (before AII 0.1 mcg/kg IV, 180 min post dose, 10 mg/kg) was 200 mmHg and 170 mmHg, the “Control Before AII” value (before AII 0.1 mcg/kg IV, 240 min post dose, 10 mg/kg) was 200 mmHg and 170 mmHg and the “Control Before AII” value (before AII 0.1 mcg/kg IV, 300 min post dose, 10 mg/kg) was 220 mmHg and 180 mmHg.

From patent US5294617A, “Angiotensin II receptor blocking 2,3,6 substituted quinazolinones” (American Cyanamid Company, priority 1993, dated 1994)
